These are literature values, as cited in patent US20030031651A1, “Methods and reagents for cell transplantation” (priority 2001, published 2003).

The subject of this data set is BMSCs. Particulars: BMSCs exposed to 5-azacytidine.

`Nc1ncn([C@@H]2O[C@H](CO)[C@@H](O)[C@H]2O)c(=O)n1` [5-azacytidine]: the “c-abl and interleukin-6 transcripts” value is given as “rapidly upregulate”; the “expression of collagen I” value is reported as “downregulating”.
